According to US9408859B2, “Pharmaceutical compositions useful for preventing and treating cancer” (Mitotech SA, priority 2007, dated 2016):
Peptide text beside a SMILES is read from it. * marks the point of attachment. Cbz = O=C(OCc1ccccc1)*; CH2F = FC*

Key:
Lung Lewis's carcinoma = assay: SkQ1 combined with doxorubicin on growth of lung Lewis's carcinoma; format: in vivo, mouse; details: regime per group
Protocol: For development of oncological diseases joint therapy that combines SkQ1 and chemotherapy, a study on SkQ1 influence on single doxorubicin injection efficiency was performed (one of the mechanisms of the preparation is activation of oxidative processes in normal and cancerous cells). SkQ1 was introduced before, simultaneously, or after introduction of doxorubicin in maximum dose of 500 nM/kg (in order to block oxidative mechanism of doxorubicin influence).
Doxorubicin was applied before, after, and during the course of SkQ1.

[1] = tested on: human rhabdomyosarcoma cell line (RD); assay: Apoptosis in RD cells (Hoechst staining, propidium iodide flow cytometry); format: cell-based; details: for Induction of apoptosis: 1 mM NAC or 100 mM Trolox for 24 hours
Protocol: To determine the viability of the cells, chromatine condensation and fragmentation was analyzed in similarly-treated cells (20 nM SkQ or 1 mM NAC or 100 mM Trolox for 24 hours and 1 μm FCCP one hour before SkQ1 where indicated) after staining with Hoechst 3342 (GenScript, Cat. No. L00309, performed according to manufacture manual http://www.genscript.com/tech_guide/TM0361.pdf). The cells were then examined using an Axiovert fluorescent microscope equipped with objectives 20× (dry) and 100× (oil immersion Neofluar) (Carl Zeiss).
Further evidence of apoptosis was obtained by analysis of DNA content in the cellular population using flow cytometry. Cells were incubated with 0.05% ethanol was added (control) or with 20 nM SkQ1 for 24 hours, and then fixed and stained with propidium iodide (5 μM). They were then analyzed by flow cytometry using a FC-500 FACS (Beckman Coulter, Inc., Brea, Calif.).

[2] = tested on: tumor xenografts (tumors of epithelial cancers); details: as stated in WO2006005759, cited from earlier work
[3] = tested on: human rhabdomyosarcoma cell line (RD); assay: RD cell morphology, attachment and multinuclear cells; format: cell-based; details: 20 nM, pretreatment for 24 hours
Protocol: In the following experiment, a human rhabdomyosarcoma cell line (RD) purchased from the ATCC (#CCL-136) was used. These cells were isolated from a […] 7 years ago and are widely accepted as a model for studies of rhabdomyosarcoma in vitro and in vivo.
The cells were grown in Dulbecco's modified Eagle's medium (DMEM, Gibco®, Invitrogen, Carlsbad, Calif.) supplemented with 10% FBS. The cells were treated with 20 nM SkQ (SkQ1, SkQR1, SkQB1, or SkQBP1), or with a non-targeted antioxidant (1 mM NAC, or 100 μM Trolox) 24 to 72 hours before evaluation. In some experiments 1 μM of the protonophorous uncoupler FCCP was added 1 hour before the addition of SkQ1 to depolarize the mitochondrial membrane, and thus to prevent the electrophoretic accumulation of SkQ in the mitochondrial interior. The cells were then stained with rabbit polyclonal antibodies against actin (1:1000) (Sigma-Aldrich Corp., Baleras, Russia) and monoclonal antibody DM1A against tubulin (1:1000) (Sigma-Aldrich Corp.), and their morphology examined using an Axiovert fluorescent microscope equipped with objectives 20× (dry) and 100× (oil immersion Neofluar) (Carl Zeiss, Germany).

With `COc1cccc2c1C(=O)c1c(O)c3c(c(O)c1C2=O)C[C@@](O)(C(=O)CO)C[C@@H]3O[C@H]1C[C@H](N)[C@H](O)[C@H](C)O1` [DOX, doxorubicin, reference compound] the “TGS %, by tumor volume” value (Lung Lewis's carcinoma; Day 10) was 26%, the “TGS %, by tumor volume” value (Lung Lewis's carcinoma; Day 14) was 38% and the “TGS %, by tumor volume” value (Lung Lewis's carcinoma; Day 14, listed as doxorubicin) was 36%. The “TGS %, by tumor volume” value (Lung Lewis's carcinoma; Day 17) was 35% and the “TGS %, by tumor volume” value (Lung Lewis's carcinoma; Day 21) was 30%.
For `N#CC(C#N)=NNc1ccc(OC(F)(F)F)cc1` [FCCP], the “Effect on pro-apoptotic action of SkQs” value ([1]; 1 μm FCCP one hour before SkQ1) was “prevented their pro-apoptotic action”.
In the case of `COC1=C(OC)C(=O)C(CCCCCCCCCC[P+](c2ccccc2)(c2ccccc2)c2ccccc2)=C(C)C1=O` [MitoQ], the necrosis [2] is given as “increased necrosis”, the “vascularization of the tumor xenografts” value [2] is given as “decreased vascularization” and the tumor size ([2]; no experimental data shown) is given as “tumor size reduction”.
For `CC(=O)N[C@@H](CS)C(=O)O` [NAC], the Induction of apoptosis [1] was “induced apoptosis in RD cells but only at much higher concentrations”.
In the case of `COc1ccc2c(CC(=O)OCCCCCCCC3=CC(=O)C(C)=C(C)C3=O)c3[n+](cc2c1OC)CCc1cc2c(cc1-3)OCO2` [SkQB1], the Cell morphology [3] is reported as “induced the formation of elongated cells”.
With `COc1cc2c(cc1OC)-c1c(CC(=O)OCCCCCCCC3=CC(=O)C(C)=C(C)C3=O)c3ccc(OC)c(OC)c3c[n+]1CC2` [SkQBP1] the Cell morphology [3] was “induced the formation of elongated cells”.
With `Cc1c(C)c2c(c(C)c1O)CCC(C)(C(=O)O)O2` (centres unmarked) [Trolox] the Induction of apoptosis [1] was “induced apoptosis in RD cells but only at much higher concentrations”.
For `COC(=O)C[C@H](NC(=O)[C@H](C)NC(=O)[C@@H](NC(=O)OCc1ccccc1)C(C)C)C(=O)CF` [zVADfmk] (Cbz-Val-Ala-Asp(OMe)-CH2F), the “Effect on cell death caused by SkQs” value ([1]; pan-caspase inhibitor) was “Cell death was prevented”.
